Measurements published in patent US20070004634A1 (Novo Nordisk A/S, priority 1998, published 2007).
No end group written: not given here.

Legend:
[1] = target: IR (Homo sapiens, UniProt P06213); assay: Phage ELISA, binding of phage clones to IR (ratio over background); settings: ratio of IR divided by ratio of IGF-1R
Experimental: (§1) HIT indicates binder; CAND indicates binder candidate; LDH indicates binding to lactate dehydrogenase (negative control); Sp/Irr indicates the ratio of specific binding over non-specific binding.
(§2) Sp/Irr=the ratio of specific binding over non-specific binding; LDH=lactate dehydrogenase (negative control).
(§3) For phage pools, cells from frozen stocks were grown and phage were prepared as described above. For analysis of individual clones, colonies were picked and phage prepared as described above. Subsequent steps were the same for pooled and clonal phage. Microtiter wells were coated and blocked as described above. […] Phage resuspended in MPBS (PBS containing 2% non-fat milk) were added to wells (100 μl/well) and incubated at room temperature for 1 h. The phage solution was then removed, and the wells were washed three times with PBS at room temperature.
(§4) Anti-M13 antibody conjugated to horseradish peroxidase (Pharmacia Biotech) was diluted 1:3000 in MPBS and added to each well (100 μl/well). Incubation was for another hour at room temperature, followed by PBS washes as described. Color was developed by addition of ABTS solution (100 μl/well; Boehringer). […] Data points were averaged after subtraction of appropriate blanks. A clone was considered “positive” if the A405 of the well was ≧2-fold over background.

[2] = target: IGF-1R (Homo sapiens, UniProt P08069); assay: Phage ELISA, binding of phage clones to IGF-1R (ratio over background); settings: ratio of IGF-1R divided by ratio of IR
Experimental: as §1, §2, §3, §4

Row | Substance | Comparisons IR/IGF-1R [1] | Comparisons IGF-1R/IR [2]
1 | AQPCGGFYGLLEQLVGRSVCD [20E2B-4-F10-IGFR] | 0.1 | 7.8
2 | KLHNLMFYYGLQRLVWGAGLG [20E2B-4-H3-IGFR] | 0.1 | 13.9
3 | QGNVLDFYGWIGRLLAKQGSD [20E2B-3-D12-IGFR] | 0.1 | 7.3
4 | RCGRELYHSTFYDWFDRQVAGRTCPS [H2CA-1-A7-IGFR] | 0.3 | 3.7
5 | GVRAMSFYDALVSVLGLGPSG [20E2B-1-A6-IGFR] | 0.1 | 16.8
6 | NSRDGGFYLQLERLLGFPVTG [20E2B-3-D4-IGFR] | 0.1 | 9.6
7 | GCVVEWQKWHGASDPFYHKLSELGGCS [B6Hα-3-F10-IR] | 0.2 | 4.6
8 | MMVVDGFYDALHQLVVAQSLG [20E2A-3-D10-IGFR] | 0.3 | 3.9
9 | CMM.DGFYAGLGCLLTAGEGR (CMMXDGFYAGLGCLLTAGEGR; not fully specified; printed as CMM.DGFYAGLGCLLTAGEGR; X: residue not identified in the source; cysteine pairing not given here) [20E2B-3-C11-IGFR] | 0.1 | 7.5
10 | MNVFVSFYDAIDQLVCQRIGC [20E2A-4-G11-IGFR] | 0.4 | 2.6
11 | IQQELTFYDLLHRLVRSELGS [20E2B-3-D2-IGFR] | 0.1 | 11.7
12 | LSSDGQFYRALNLLLQGSAGR [20E2B-2-B7-IGFR] | 0.1 | 6.7
13 | LRIANLFYQRLWDLAFGGGG [20E2B-3-E8-IFGR] | 0.1 | 11.1
14 | QPDHSYFYSLLQELVGSEERL [20E2B-4-F9-IGFR] | 0.1 | 7.7
15 | GGTEVDFYRALERLVRGQLGL [20E2B-3-D8-IGFR] | 0.1 | 11.3
16 | DSVGDNFYQLLESLVGGHGVG [20E2B-3-D6-IGFR] | 0.1 | 6.9
17 | PAGPCGFYCGLGLLLHGDQSP [20E2B-4-H8-IGFR] | 0.2 | 5.9
18 | ICTGQGFYQVLCGLLRGTSAR [20E2B-2-B3-IGFR] | 0.1 | 7.4
19 | LGVTDGFYAALGYLIHGVGQF [20E2B-3-D11-IGFR] | 0.1 | 7.6
20 | SQAGSAFYAWFDQVLRTVHSA [20E2Bβ-4-G6-IR] | 0.3 | 3.3
21 | PGTDLGFYQALRCVVIQGACD [20E2B-2-B2-IGFR] | 0.1 | 8.1
22 | AGSVTSFYDAMEQLVATGTSA [20E2A-3-A4-IGFR] | 0.7 | 1.4
23 | QFYGCLLDLSLGVPSFGWRRRCITA [20C-3-A4-IGFR] | 0.1 | 7.6
24 | LSVALSFYDALGQLVAGEGRW [20E2A-3-A12-IGFR] | 0.3 | 3.9
25 | ASSASGFYELLQRLAGLGLEV [20E2B-3-C4-IGFR] | – | 6.2

Other lines, results leading:

Row | Comparisons IR/IGF-1R [1] | Comparisons IGF-1R/IR [2] | Substance
26 | 0.1 | 6.7 | RGIVAMVEATEVGSDHPFYHKLSELVQGS [Peptide B6Hα-2-C7-IR]
27 | 0.3 | 3.0 | AICDAGFHEHFYDWFALQVSDCGRQS [H2CA-2-B11-IGFR]
28 | 0.1 | 16.6 | RLFYCGIQALGANLGYSGCV [R20α-4-20A12-IR]
29 | 0.1 | 17.3 | RGQSDAFYSGLWALIGLSDG [Peptide R20β-4-A6-IR]
30 | 0.5 | 2.2 | HLADGQFHEKFYDWFERQISSRCNDC [H2CA-3-E11-IGFR]
31 | 0.3 | 3.0 | SSETAKMVTGTRDDPFYHKLSELVQGS [Peptide B6Hα-D8-IR]
32 | 0.3 | 3.7 | LRRQAPVEENFYDWFVRQVSGDRVGG [H2CA-3-D7-IGFR]
33 | 0.3 | 3.1 | SRVAATKEKRPSDDPFYHKLSELLQGS [Peptide B6Hα-3-F7-IR]
34 | 0.2 | 4.3 | GCAVVEEAERSRGDPFYHKLSELIQGC [Peptide B6Hα-3-E7-IR]
35 | 0.2 | 4.2 | GCEVIVEEGDSADPFYHKLSELCQGS [Peptide B6Hα-2-D1-IR]
36 | 0.1 | 17.0 | YRGMLVLGRSSDGAGKVAFERPARIGQTVFAVNFYDWFV [Peptide A6L-0-E6-IR]
37 | 0.5 | 1.8 | CSMAAVAEAGDDDDPFYHKLSELCQGS [Peptide B6Hα-3-F1-IR]
38 | 0.1 | 12.3 | VGYQGQGDENFYDWFIRQVSGRLGVQ [H2CA-4-F5-IGFR]
39 | 0.5 | 2.1 | FRTLAAQHDSFYDWFDRQVSGAAGER [H2CA-3-C11-IGFR]
40 | 0.1 | 14.2 | RCEEKQAEVGPSSDPFYHKMSELLGCR [Peptide B6Hα-3-E9-IR]
41 | 0.4 | 2.5 | TSEVQRRSQDNFYDWFVAQVA [Peptide A6S-3-E2-IR]
42 | 0.2 | 4.1 | GFREGNFYEWFQAQVT [Peptide E4Dα-4-H2-IR]
43 | 0.3 | 2.9 | LGYQEPFQQNFYDWFVRQVSGAENAG [H2CA-3-E8-IGFR]
44 | 0.0 | 20.5 | CCTTEMVVMDARDDPFYHKLSELVTGG [Peptide B6Hα-1-B5-IR]
45 | 0.3 | 3.8 | FYVQQWGHENFYDWFDRQVSQSGGAG [H2CA-4-F1-IGFR]
46 | 0.1 | 9.4 | SACQFDCHENFYDWFARQVSGGAAYG [H2CA-4-H8-IGFR]
47 | 0.2 | 4.1 | SSIGGGEHENFYDWFSRQLSQSPPLK [H2CA-4-F7-IGFR]
48 | 0.3 | 2.9 | RCGDEEGWQENRRDDPFYHKLSELFGGC [Peptide B6Hα-3-E5-IR]
49 | – | 14.6 | RGCNDDGGKGWSDDPFYHKLSELICGG [Peptide B6Hα-1-A2-IR]
50 | 0.1 | 13.0 | YRGMLVLGRISDGAG#VASEPPARIGRKVFAVNFYDWFV [Peptide A6L-0-E4-IR]
51 | 0.2 | 4.8 | RGKTAAVIVGRPADPFYHKLSELLQGG [Peptide B6Hα-3-E8-IR]
52 | 0.2 | 4.9 | RFDPFYSYFVNLLGASA [NNRPγ-4-A7-IR]
53 | 0.2 | 4.4 | GRTMAVMAAGGPDDPFYHKLSELVQGG [Peptide B6Hα-2-D6-IR]
54 | 0.4 | 2.8 | EAASLGSQDRNFYDWFVRQVV [Peptide A6S-2-D11-IR]
